The results in this text go back to patent publication EP3892265A1, “COMPOSITION FOR SUPPRESSING BLOOD PRESSURE ELEVATION AND METHOD FOR SUPPRESSING BLOOD PRESSURE ELEVATION” (Suntory Holdings Limited, priority 2018, dated 2020).

In assay [1] the test system is human umbilical vein endothelial cells (HUVECs, Lonza). Put plainly: Promotion of nitric oxide (NO) production from vascular endothelial cells, DAF-2 fluorescence. The format is cell-based. The settings on record: 24 hours, relative to control group; for Relative amount of NO released (%) Average: n = 5. The procedure: The effect of xanthohumol (produced by Gifu Shellac Manufacturing Co., Ltd.) in promoting nitric oxide (NO) production from vascular endothelial cells was evaluated by the following procedure.
Specifically, human umbilical vein endothelial cells (HUVECs, Lonza) were treated with xanthohumol for 24 hours, and the amount of nitric oxide (NO) production was measured (n = 5).
HUVECs in a medium (EGM-2, Lonza) were seeded onto a 96-well plate at 10000 cells/0.1 mL/well, and cultured in a CO2 incubator. On the following day, the medium of a xanthohumol-added group was replaced by a medium to which xanthohumol was added; the control group was transferred to a control medium; and the positive control group was transferred to a medium containing positive control (Lovastatin, 10 µM) . Then, these groups were cultured in a CO2 incubator for additional 24 hours.
The medium to which xanthohumol was added was prepared by dissolving xanthohumol in dimethyl sulfoxide (DMSO) and adding the solution to a medium such that the final concentration of xanthohumol was 1 µg/mL, 3 µg/mL, or 10 µg/mL. The control medium was prepared by adding DMSO to a medium to the same concentration as that in the xanthohumol-added group. The medium containing positive control was prepared by adding a solution of lovastatin in DMSO to a medium such that the final concentration of lovastatin (produced by FUJIFILM Wako Pure Chemical Corporation) was 10 µM.
After culturing for 24 hours, diaminofluorescein-2 diacetate (DAF-2, Goryo Chemical, Inc.) was added to each medium to a final concentration of 10 µM, followed by incubation in a CO2 incubator for two hours. Subsequently, the culture supernatant was transferred to a 96-well plate (black plate), and the fluorescence intensity (ex. 495 nm, em. 515 nm) was measured. The fluorescence intensity relative to the fluorescence intensity of the control group was determined as the relative amount of NO released. Significant difference was tested between the groups (control group vs. xanthohumol-added group) by Student's t-test (significant level: p < 0.05). […]

The target in assay [2] is T1, angiotensin-converting enzyme (ACE) (Homo sapiens, UniProt P12821).
T1 construct: purchased Dojindo Laboratories
T1 sequence (P12821 30-1306, species assumed): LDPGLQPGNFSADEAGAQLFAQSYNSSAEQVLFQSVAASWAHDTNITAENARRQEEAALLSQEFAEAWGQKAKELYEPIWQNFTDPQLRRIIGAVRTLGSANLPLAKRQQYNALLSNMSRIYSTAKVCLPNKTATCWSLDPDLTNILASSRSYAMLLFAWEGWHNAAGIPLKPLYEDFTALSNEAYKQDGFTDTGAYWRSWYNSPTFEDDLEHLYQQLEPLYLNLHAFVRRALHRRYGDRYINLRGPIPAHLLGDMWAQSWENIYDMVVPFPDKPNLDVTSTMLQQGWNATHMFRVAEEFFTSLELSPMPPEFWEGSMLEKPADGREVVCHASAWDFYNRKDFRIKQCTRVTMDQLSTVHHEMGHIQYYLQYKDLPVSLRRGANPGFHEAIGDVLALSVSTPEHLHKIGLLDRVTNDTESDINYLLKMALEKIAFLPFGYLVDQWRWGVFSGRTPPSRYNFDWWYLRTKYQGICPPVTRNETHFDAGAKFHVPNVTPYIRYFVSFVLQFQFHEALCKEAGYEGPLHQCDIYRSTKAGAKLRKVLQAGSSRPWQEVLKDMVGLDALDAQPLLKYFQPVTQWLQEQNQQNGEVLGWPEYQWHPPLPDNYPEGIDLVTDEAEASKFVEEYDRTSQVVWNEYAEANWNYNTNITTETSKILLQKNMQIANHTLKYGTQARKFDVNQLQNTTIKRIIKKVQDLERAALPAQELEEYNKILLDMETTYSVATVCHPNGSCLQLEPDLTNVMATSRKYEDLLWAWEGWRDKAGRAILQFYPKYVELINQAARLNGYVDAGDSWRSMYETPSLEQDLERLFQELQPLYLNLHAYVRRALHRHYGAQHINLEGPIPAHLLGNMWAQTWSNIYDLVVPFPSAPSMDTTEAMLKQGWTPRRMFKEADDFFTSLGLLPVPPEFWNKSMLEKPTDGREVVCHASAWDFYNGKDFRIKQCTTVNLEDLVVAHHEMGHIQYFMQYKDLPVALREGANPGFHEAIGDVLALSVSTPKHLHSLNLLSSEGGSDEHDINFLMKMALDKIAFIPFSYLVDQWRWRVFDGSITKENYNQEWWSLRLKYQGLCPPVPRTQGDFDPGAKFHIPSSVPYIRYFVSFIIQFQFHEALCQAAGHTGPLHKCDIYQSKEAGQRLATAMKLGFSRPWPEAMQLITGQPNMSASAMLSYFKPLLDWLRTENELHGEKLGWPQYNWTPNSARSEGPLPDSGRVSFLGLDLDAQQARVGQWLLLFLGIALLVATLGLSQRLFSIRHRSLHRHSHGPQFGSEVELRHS
The experiment in a line: ACE inhibitory activity measured with ACE Kit-WST (Dojindo Laboratories). The settings on record: n = 4. The format is biochemical. The procedure:
The angiotensin-converting enzyme (ACE) inhibitory effect of xanthohumol was evaluated by the following procedure.
Specifically, the ACE inhibitory activity was measured for the case where xanthohumol (produced by Gifu Shellac Manufacturing Co., Ltd.) was added as a test substance (n = 4 per level), using an ACE Kit-WST (Dojindo Laboratories) according to the instructions accompanying the kit.
A level with addition of distilled water instead of xanthohumol was set as a control group.
A level with no addition of xanthohumol which was measured in an ACE (enzyme)-free reaction system was set as an enzyme-free group.
The ACE inhibitory activity (%) of the test substance was calculated using the following formula 1. Significant difference was tested between the groups (control group vs. test substance-added group) by Student's t-test (significant level: p < 0.05). ACE inhibitory activity(%); = 100 × ((absorbanceat450nmofcontrolgroup)−; (absorbance at 450 nm in test substance−added; group))/((absorbanceat450nmofcontrolgroup)−; (absorbanceat450nmofenzyme-freegroup)) [formula]

Setting [3] is: Xanthohumol concentration 3 µg/mL.
Setting [4] is: Xanthohumol concentration 10 µg/mL.

Regarding `CC[C@H](C)C(=O)O[C@H]1C[C@@H](C)C=C2C=C[C@H](C)[C@H](CC[C@@H]3C[C@@H](O)CC(=O)O3)[C@H]21` [positive control, Lovastatin, reference compound], in assay [1] (Lovastatin 10 µM, average ± standard error), the “relative amount of NO released” value amounted to 122.8 ± 2.7%.

For `COc1cc(O)c(CC=C(C)C)c(O)c1C(=O)/C=C/c1ccc(O)cc1` [Xanthohumol], the inhibition at 3 µg/mL in assay [2] (setting [3]) was 3.33%. In addition, the inhibition at 10 µg/mL in assay [2] (setting [4]) was 15.8%. For the same compound, the inhibition at 30 µg/mL in assay [2] (Xanthohumol concentration 30 µg/mL) turned out to be 19.5%. In addition, the “Relative amount of NO released (%) Average” value in assay [1] (Xanthohumol concentration 1 µg/mL) is given as 108.3%; in assay [1] (setting [3]), 124.8%; in assay [1] (setting [4]), 147.5%.
